Test system: lethally irradiated recipient mice
Assay: Survival of lethally irradiated recipients of suboptimal BMMC from treated donors
Type: in vivo
Excerpt: FIGS. 14A and 14B are graphs showing survival analysis by the method of Kaplan-Meyer in lethally irradiated recipients of suboptimal BMMC (1.5×10^5 donor BMMC (A) and 0.75×10^5 donor BMMC (B)) from vehicle or PGE2-treated donors.
Moreover, since ST-HSC confer radioprotection, PGE2-dependent ST-HSC expansion would be expected to improve survival of lethally irradiated recipients receiving limiting numbers of BMMC from PGE2 vs vehicle-treated mice. To test this hypothesis, adult C57Bl/6 donor mice were treated with PGE2 or vehicle prior to bone marrow harvest. Recipient mice received myeloablative doses of radiation and suboptimal BMMC numbers (FIGS. 14A and 14B).

CCCCC[C@H](O)/C=C/[C@H]1[C@H](O)CC(=O)[C@@H]1C/C=C\CCCC(=O)O [PGE2, Prostaglandin E2]
survival 30 days after transplantation (75,000 donor cells from treated donors, p=0.0173): 53%
survival 30 days after transplantation (150,000 donor cells from treated donors, p=0.0018): 80%

— patent publication US9394520B2, “Expansion of hematopoietic stem cells” (University of Rochester, priority 2006, dated 2016)
